Where a SMILES comes first, the peptide text is derived from it. Bridges are numbered along the chain shown (N, C = ends). [ ]: non-standard residue; d: D form. The star is where a group is joined. Threoninol(2S,3R) = C[C@@H](O)[C@H](CO)N*
Key:
Carbonic anhydrase 2 = Carbonic anhydrase 2 (Homo sapiens, UniProt P00918); assay: DRUGMATRIX: Carbonic Anhydrase II enzyme inhibition (substrate: 4-Nitrophenyl acetate (4-NPA)); format: tissue-based, Erythrocyte; settings: erythrocyte; Not Active = under 50% inhibition at 10 µM
[1] = target: T1, Vasoactive intestinal polypeptide receptor 1 (Homo sapiens, UniProt P32241); format: cell membranes, Membrane; settings: ht-29; note: in other assays of this panel Not Active means under 50% inhibition at 10 µM
T1 sequence (P32241 whole entry): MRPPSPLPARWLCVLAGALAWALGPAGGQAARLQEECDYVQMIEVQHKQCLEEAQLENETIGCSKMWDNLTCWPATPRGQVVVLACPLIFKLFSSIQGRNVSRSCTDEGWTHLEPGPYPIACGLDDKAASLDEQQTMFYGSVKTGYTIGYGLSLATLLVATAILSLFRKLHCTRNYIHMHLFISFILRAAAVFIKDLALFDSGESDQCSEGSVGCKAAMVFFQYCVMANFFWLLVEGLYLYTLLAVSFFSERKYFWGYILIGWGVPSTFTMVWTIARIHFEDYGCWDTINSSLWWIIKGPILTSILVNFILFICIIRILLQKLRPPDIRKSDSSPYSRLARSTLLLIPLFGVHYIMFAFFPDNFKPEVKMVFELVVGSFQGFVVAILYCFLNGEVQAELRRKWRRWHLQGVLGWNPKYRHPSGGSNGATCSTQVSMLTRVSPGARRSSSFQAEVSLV

[2] = DRUGMATRIX: Platelet-Derived Growth Factor (PDGF) radioligand binding (ligand: [125I] PDGF); format: cell-based; settings: nih3t3; Not Active = under 50% inhibition at 10 µM
[3] = target: Beta-1 adrenergic receptor (Homo sapiens, UniProt P08588); assay: DRUGMATRIX: Adrenergic beta1 radioligand binding (ligand: [125I] Cyanopindolol); format: cell membranes, CHO-K1, Membrane; settings: cho-k1; Not Active = under 50% inhibition at 10 µM
Melanocortin receptor 5 = Melanocortin receptor 5 (Homo sapiens, UniProt P33032); format: cell membranes, Membrane; settings: hek293; note: in other assays of this panel Not Active means under 50% inhibition at 10 µM
Acetylcholinesterase = Acetylcholinesterase (Homo sapiens, UniProt P22303); assay: DRUGMATRIX: Acetylcholinesterase enzyme inhibition (substrate: acetylthiocholine); format: cell-based, HEK293; settings: Not Active = under 50% inhibition at 10 µM
[4] = target: Sodium-dependent noradrenaline transporter (Homo sapiens, UniProt P23975); assay: DRUGMATRIX: Norepinephrine Transporter radioligand binding (ligand: [125I] RTI-55); format: cell membranes, MDCK, Membrane; settings: Not Active = under 50% inhibition at 10 µM
Sequence of Sodium-dependent noradrenaline transporter (P23975 whole entry): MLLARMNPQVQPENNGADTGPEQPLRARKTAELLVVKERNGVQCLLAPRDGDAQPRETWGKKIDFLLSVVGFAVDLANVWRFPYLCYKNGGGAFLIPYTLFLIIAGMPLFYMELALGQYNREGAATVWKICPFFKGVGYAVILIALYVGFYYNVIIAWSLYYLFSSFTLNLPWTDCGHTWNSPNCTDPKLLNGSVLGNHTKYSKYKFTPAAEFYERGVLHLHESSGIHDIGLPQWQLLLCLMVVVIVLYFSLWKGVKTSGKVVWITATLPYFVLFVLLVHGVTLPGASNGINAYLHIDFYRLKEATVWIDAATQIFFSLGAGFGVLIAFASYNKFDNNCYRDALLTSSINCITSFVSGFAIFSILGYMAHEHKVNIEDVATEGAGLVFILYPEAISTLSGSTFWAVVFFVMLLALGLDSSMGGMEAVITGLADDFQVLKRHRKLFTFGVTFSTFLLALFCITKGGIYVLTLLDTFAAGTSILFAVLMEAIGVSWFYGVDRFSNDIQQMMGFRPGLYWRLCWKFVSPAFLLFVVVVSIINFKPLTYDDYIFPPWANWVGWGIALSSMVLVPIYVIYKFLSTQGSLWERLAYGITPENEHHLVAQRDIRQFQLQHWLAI

Sequence of Beta-1 adrenergic receptor (P08588 whole entry): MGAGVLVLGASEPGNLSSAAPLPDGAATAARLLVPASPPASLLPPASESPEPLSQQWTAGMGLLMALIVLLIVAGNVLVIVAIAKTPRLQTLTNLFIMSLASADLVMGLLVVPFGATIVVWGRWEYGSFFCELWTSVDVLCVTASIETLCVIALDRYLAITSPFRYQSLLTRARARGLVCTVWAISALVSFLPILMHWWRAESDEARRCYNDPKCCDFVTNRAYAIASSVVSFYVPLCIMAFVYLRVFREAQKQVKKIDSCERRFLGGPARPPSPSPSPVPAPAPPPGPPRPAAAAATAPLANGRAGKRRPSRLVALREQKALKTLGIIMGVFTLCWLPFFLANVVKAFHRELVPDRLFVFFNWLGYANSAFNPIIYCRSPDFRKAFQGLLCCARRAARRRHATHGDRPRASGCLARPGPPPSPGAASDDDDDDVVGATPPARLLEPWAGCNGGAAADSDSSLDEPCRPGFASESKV
Sequence of Acetylcholinesterase (P22303 whole entry): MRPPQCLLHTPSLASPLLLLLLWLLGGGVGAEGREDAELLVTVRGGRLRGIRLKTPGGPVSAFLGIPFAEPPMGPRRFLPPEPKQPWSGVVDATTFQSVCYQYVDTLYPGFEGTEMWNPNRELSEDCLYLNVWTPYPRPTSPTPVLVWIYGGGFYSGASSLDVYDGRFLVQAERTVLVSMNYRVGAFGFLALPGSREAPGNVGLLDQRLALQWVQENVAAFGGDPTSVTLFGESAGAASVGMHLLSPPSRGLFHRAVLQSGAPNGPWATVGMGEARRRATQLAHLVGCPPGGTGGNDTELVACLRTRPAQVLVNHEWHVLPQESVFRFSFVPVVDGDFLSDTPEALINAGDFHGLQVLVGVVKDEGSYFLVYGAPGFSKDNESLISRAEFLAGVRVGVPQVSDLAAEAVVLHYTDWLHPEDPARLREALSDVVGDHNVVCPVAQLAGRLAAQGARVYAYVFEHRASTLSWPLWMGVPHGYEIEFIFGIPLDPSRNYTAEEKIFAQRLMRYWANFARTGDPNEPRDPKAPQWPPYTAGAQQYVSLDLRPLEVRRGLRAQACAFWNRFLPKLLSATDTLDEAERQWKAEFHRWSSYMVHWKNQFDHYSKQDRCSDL
Sequence of Melanocortin receptor 5 (P33032 whole entry): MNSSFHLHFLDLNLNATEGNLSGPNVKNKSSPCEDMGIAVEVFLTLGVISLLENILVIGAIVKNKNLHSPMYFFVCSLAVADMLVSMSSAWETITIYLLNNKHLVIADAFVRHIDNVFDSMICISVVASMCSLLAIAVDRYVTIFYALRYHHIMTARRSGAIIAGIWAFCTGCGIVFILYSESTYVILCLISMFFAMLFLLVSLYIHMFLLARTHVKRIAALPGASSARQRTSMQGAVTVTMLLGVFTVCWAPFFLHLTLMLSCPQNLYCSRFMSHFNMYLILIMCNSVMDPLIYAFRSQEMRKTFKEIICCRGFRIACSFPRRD

Structure (SMILES)	IC50 (Carbonic anhydrase 2)	IC50 [1]	IC50 [2]	Ki [2]	IC50 [3]	IC50 (Melanocortin receptor 5)	IC50 (Acetylcholinesterase; hek293)	IC50 ([4]; mdck)	IC50 ([4]; read-out: IC50) [µM]	Ki ([4]; read-out: Ki) [µM]	Ki (Carbonic anhydrase 2)	Ki [1]	Ki [3]	Ki (Melanocortin receptor 5)	Ki (Acetylcholinesterase; hek293)	Ki ([4]; mdck)	IC50 (Acetylcholinesterase; read-out: IC50) [µM]
COc1ccccc1C(=O)N1CCC(Cc2ccccc2)CC1	Not Active	Not Active	Not Active	Not Active	Not Active	Not Active	Not Active	Not Active									
Cc1ccccc1C(=O)N1CCC(Cc2ccccc2)CC1	Not Active	Not Active	Not Active	Not Active	Not Active	Not Active	Not Active	Not Active									
O=C1CC[C@H](N2C(=O)c3ccccc3C2=O)C(=O)N1	Not Active	Not Active	Not Active	Not Active	Not Active	Not Active	Not Active	Not Active									
N=C(Nc1ccccc1)Nc1ccccc1	Not Active	Not Active	Not Active	Not Active	Not Active	Not Active	Not Active		1.15	1.14							
C[C@@H](O)[C@H](CO)NC(=O)[C@@H]1CSSC[C@H](NC(=O)[C@H](N)Cc2ccccc2)C(=O)N[C@@H](Cc2ccccc2)C(=O)N[C@H](Cc2c[nH]c3ccccc23)C(=O)N[C@@H](CCCCN)C(=O)N[C@@H]([C@@H](C)O)C(=O)N1 (H-[dF]CF[dW]KTC-{Threoninol(2S,3R)}; disulfide 2-7)	Not Active	Not Active	Not Active	Not Active	Not Active	Not Active	Not Active	Not Active									
S=C=Nc1cccc2ccccc12 [1-NAPHTHYLISOTHIOCYANATE]	Not Active	Not Active	Not Active	Not Active	Not Active	Not Active	Not Active	Not Active									
C[C@](O)(CS(=O)(=O)c1ccc(F)cc1)C(=O)Nc1ccc(C#N)c(C(F)(F)F)c1 [(R)-BICALUTAMIDE]	Not Active	Not Active	Not Active	Not Active	Not Active	Not Active	Not Active										
CCCC(=O)Nc1ccc(OCC(O)CNC(C)C)c(C(C)=O)c1 (configuration not stated) [ACEBUTOLOL]	Not Active	Not Active	Not Active	Not Active		Not Active	Not Active	Not Active									
CC(=O)Nc1ccc(O)cc1 [ACETAMINOPHEN]	Not Active	Not Active	Not Active	Not Active	Not Active	Not Active	Not Active	Not Active									
COc1cc2c(c3oc(=O)c4c(c13)CCC4=O)[C@@H]1C=CO[C@@H]1O2 [AFLATOXIN]	Not Active	Not Active	Not Active	Not Active	Not Active	Not Active	Not Active	Not Active			Not Active	Not Active	Not Active	Not Active	Not Active	Not Active	
N=C(N)NC(=O)c1nc(Cl)c(N)nc1N [AMILORIDE]	Not Active	Not Active	Not Active	Not Active	Not Active	Not Active	Not Active	Not Active									
Cc1cc(=O)n(-c2ccccc2)n1C [ANTIPYRINE]	Not Active	Not Active	Not Active	Not Active	Not Active	Not Active	Not Active	Not Active									
CN1C(=O)COc2c(C(=O)NC3CN4CCC3CC4)cc(Cl)cc21 (configuration not stated) [AZASETRON]	Not Active	Not Active	Not Active	Not Active	Not Active	Not Active	Not Active	Not Active									
C[C@H]1C[C@H]2[C@@H]3CCC4=CC(=O)C=C[C@]4(C)[C@@]3(Cl)[C@@H](O)C[C@]2(C)[C@@]1(O)C(=O)CO [BECLOMETHASONE]	Not Active	Not Active	Not Active	Not Active	Not Active	Not Active	Not Active	Not Active									
CCOC(=O)[C@H](CCc1ccccc1)N[C@H]1CCc2ccccc2N(CC(=O)O)C1=O [BENAZEPRIL]	Not Active	Not Active	Not Active	Not Active	Not Active	Not Active	Not Active	Not Active									
Nc1c(CC(=O)O)cccc1C(=O)c1ccc(Br)cc1 [BROMFENAC]	Not Active	Not Active	Not Active	Not Active	Not Active	Not Active	Not Active	Not Active									
CCCCN1CCCCC1C(=O)Nc1c(C)cccc1C.Cl (configuration not stated) [BUPIVACAINE HYDROCHLORIDE]	Not Active	Not Active	Not Active	Not Active	Not Active	Not Active	Not Active	Not Active									
O=C1CC2(CCCC2)CC(=O)N1CCCCN1CCN(c2ncccn2)CC1 [BUSPIRONE]	Not Active	Not Active	Not Active	Not Active	Not Active	Not Active	Not Active	Not Active									
C[C@@]12C(=O)OC(=O)[C@]1(C)[C@H]1CC[C@@H]2O1 [CANTHARIDIN]	Not Active	Not Active	Not Active	Not Active	Not Active	Not Active	Not Active	Not Active									
O=NN(CCCl)C(=O)NCCCl [CARMUSTINE]	Not Active	Not Active	Not Active	Not Active	Not Active	Not Active	Not Active	Not Active									
CC1=C(C(=O)O)N2C(=O)[C@@H](NC(=O)[C@H](N)c3ccccc3)[C@H]2SC1 [CEPHALEXIN ANHYDROUS]	Not Active	Not Active	Not Active	Not Active	Not Active	Not Active	Not Active	Not Active									
O=C(N[C@H](CO)[C@H](O)c1ccc([N+](=O)[O-])cc1)C(Cl)Cl [CHLORAMPHENICOL]	Not Active	Not Active	Not Active	Not Active	Not Active	Not Active	Not Active	Not Active									
CN(C)c1ccc(C(=C2C=CC(=[N+](C)C)C=C2)c2ccc(N(C)C)cc2)cc1.[Cl-] [GENTIAN VIOLET]	Not Active	Not Active	Not Active	Not Active		Not Active		Not Active									5.85
CCc1c2c(nc3ccc(OC(=O)N4CCC(N5CCCCC5)CC4)cc13)-c1cc3c(c(=O)n1C2)COC(=O)[C@]3(O)CC [IRINOTECAN]	Not Active	Not Active	Not Active	Not Active	Not Active	Not Active		Not Active									
COc1ccc2cc([C@H](C)C(=O)O)ccc2c1 [NAPROXEN]	Not Active	Not Active	Not Active	Not Active	Not Active	Not Active		Not Active									
